# From publication PMC7822874, “Chemoprotective antimalarials identified through quantitative high-throughput screening of Plasmodium blood and liver stage parasites” (Scientific Reports, 2021)
# Where two headings read alike, the source gives them in different places.
# Columns and labels:
# [1] = tested on: P. berghei-ANKA-GFP-LucCON liver stage parasites in HepG2-A16-CD81EGFP cells; test: P. berghei liver stage Pb-Luc assay, Method 1 (UCSD, 1536-well); type: cell-based, Plasmodium berghei; details: Plasmodium berghei, 48 h, average of 2 wells, 1536-well plate; for activity at 1 µM: nominal 1 uM (10 mM stock), […] for 15 mM, 1.2 uM for 12 mM, 2 uM for 20 mM stock; for activity at 3 µM: nominal 3 uM (10 mM stock), 4.5 uM for 15 mM, 3.6 uM for 12 mM, 6 uM for 20 mM stock; on all read-outs here: reference of the scale not given here
# in vitro = details: human, HepG2-A16-CD81EGFP cells, uninfected
# [2] = tested on: Plasmodium falciparum Dd2 asexual blood stage parasites; test: microbe, parasite or virus in culture; parameters: species or system Plasmodium falciparum Dd2 in human erythrocytes; single determination (one 11-point concentration-response curve); details: Plasmodium falciparum, DD2, Erythrocyte, 72 h; read-out: AC50
# [3] = repeat 1, read-out: Pb-Luc signal, 1 uM, repeat 1
# [4] = repeat 2, read-out: Pb-Luc signal, 1 uM, repeat 2
# [5] = repeat 3, read-out: Pb-Luc signal, 1 uM, repeat 3
# [6] = repeat 1, read-out: Pb-Luc signal, 3 uM, repeat 1
# [7] = repeat 2, read-out: Pb-Luc signal, 3 uM, repeat 2
# [8] = repeat 3, read-out: Pb-Luc signal, 3 uM, repeat 3
# [9] = nominal 1 uM (10 mM stock), […] for 15 mM, 1.2 uM for 12 mM, 2 uM for 20 mM stock, average of 2 wells, repeat 2
# [10] = nominal 3 uM (10 mM stock), 4.5 uM for 15 mM, 3.6 uM for 12 mM, 6 uM for 20 mM stock, average of 2 wells, repeat 2
SMILES,"activity at 1 µM [1, 3]","activity at 1 µM [1, 4]","activity at 1 µM [1, 5]","activity at 3 µM [1, 6]","activity at 3 µM [1, 7]","activity at 3 µM [1, 8]","HepG2 viability signal, 1 uM, repeat 2 (HepG2-A16-CD81EGFP cells; [9])","HepG2 viability signal, 3 uM, repeat 2 (HepG2-A16-CD81EGFP cells; [10])","viability at 48 h, 1 µM (in vitro)","viability at 48 h, 3 µM (in vitro)","HepG2 viability, fourth HepG2 column (HepG2-A16-CD81EGFP cells)","HepG2 viability, second HepG2 column (HepG2-A16-CD81EGFP cells)","HepG2 viability, third HepG2 column (HepG2-A16-CD81EGFP cells)",viability at 48 h (in vitro),"HepG2 viability signal, 1 uM, repeat 2 (HepG2-A16-CD81EGFP cells)","HepG2 viability signal, 3 uM, repeat 2 (HepG2-A16-CD81EGFP cells)",AC50 [2],"HepG2 viability signal, 1 uM, repeat 1 (HepG2-A16-CD81EGFP cells; nominal 1 uM (10 mM stock), […] for 15 mM, 1.2 uM for 12 mM, 2 uM for 20 mM stock, average of 2 wells, repeat 1)","HepG2 viability signal, 3 uM, repeat 1 (HepG2-A16-CD81EGFP cells; nominal 3 uM (10 mM stock), 4.5 uM for 15 mM, 3.6 uM for 12 mM, 6 uM for 20 mM stock, average of 2 wells, repeat 1)"
COc1ccc(-c2noc(-c3cccn3CC(=O)Nc3ccc(C)cc3Cl)n2)cc1F [NCGC00445494-01],118%,111%,98.1%,77.8%,91.7%,106%,100.81%,103.68%,99.5%,104%,,,,,,,,,
C[C@H]1[C@@H]2[C@H]3OC(=O)[C@@H](C)[C@@H]3CC[C@@]2(C)CC[C@@H]1NC(=O)CC(C)(C)C [NCGC00392703-01],105%,129%,103%,126%,109%,99.6%,102.40%,102.42%,95.8%,99%,,,,,,,,,
Cc1ccccc1CC(=O)NCc1nnc2cc(-c3nc(C4CC4)no3)ccn12 [NCGC00457761-01],130%,129%,103%,86.9%,122%,133%,102.90%,101.49%,109%,107%,,,,,,,,,
CCN(c1ccccc1)[S+](=O)([O-])c1ccc(NC(=O)c2cc(=O)c3cc(C)ccc3o2)cc1 [NCGC00115963-01],,,,,,,,,,,95.01%,97.84%,94.20%,97.5%,,,,,
O=C1NCc2ccccc2CC12CCCN(Cc1ccccc1)C2 (stereo not drawn) [NCGC00377595-01],90.7%,117%,140%,93.9%,108%,117%,103.34%,104.13%,104%,104%,,,,,,,,,
CCOC(=O)C1(Cc2ccccc2C(F)(F)F)CCNCC1 [NCGC00433719-01],99.2%,89.8%,165%,76.2%,96.6%,91.6%,106.17%,103.00%,108%,105%,,,,,,,,,
COc1ccc(CN2CCCC3(C2)C(NC2CCCCC2)=NC(=O)N3c2cc(F)cc(F)c2)cc1 (stereo not drawn) [NCGC00373972-01],89.2%,98.6%,137%,120%,103%,87.7%,102.91%,99.86%,107%,105%,,,,,,,,,
COc1ccccc1NC(=O)Cn1cccc1-c1nc(-c2ccc(F)cc2)no1 [NCGC00445349-01],128%,112%,138%,108%,129%,93.3%,104.40%,104.77%,107%,107%,,,,,,,,,
Cc1ccc([S+](=O)([O-])N2CCC(OC3CCN(Cc4ccccc4)CC3)CC2)c(C)c1 [NCGC00444944-01],76.1%,74%,76.6%,78.2%,61.2%,56.1%,105.13%,100.76%,111%,107%,,,,,,,,,
COc1cccc(CN2CCC(Oc3ccc(-c4noc(C5CC5)n4)cc3)C2)c1 (stereo not drawn) [NCGC00440915-01],92.7%,110%,96%,64.2%,65.8%,35.3%,97.97%,94.86%,102%,96.6%,,,,,,,,,
CN1c2cc(C(=O)Nc3ccc(C(F)(F)F)cc3)ccc2C(=O)N2CCCCC21 (stereo not drawn) [NCGC00452394-01],89.2%,103%,126%,97.6%,85.9%,102%,105.25%,108.50%,104%,110%,,,,,,,,,
COc1ccc(-c2noc(-c3cccn3CC(=O)Nc3cccc(Cl)c3C)n2)cc1F [NCGC00445510-01],103%,114%,132%,102%,91.7%,124%,99.09%,100.27%,104%,105%,,,,,,,,,
COc1ccc(Cl)cc1[S+](=O)([O-])N1CCC2(CCCNC2)C1 (stereo not drawn) [NCGC00431241-01],96.7%,98.8%,61.1%,98.4%,74.5%,79.2%,104.68%,95.82%,112%,108%,,,,,,,,,
CCC(=O)N1CCc2cc(Br)cc([S+](=O)([O-])N3CCCC(C(=O)Nc4ccc(OC)c(Cl)c4)C3)c21 (stereo not drawn) [NCGC00106201-01],76.1%,86.6%,75.8%,53.5%,100%,60%,,,90.7%,82.3%,,,,,91.30%,86.54%,,,
O=C(O)c1ccc(-c2nc3cnccc3[nH]2)cc1 [NCGC00375713-01],93.2%,89.1%,137%,91.8%,93.1%,98.5%,104.68%,103.76%,105%,104%,,,,,,,,,
COc1ccc(C2Sc3ccccc3N=C3C2=C(O)c2ccccc23)c(OC)c1OC (stereo not drawn) [NCGC00108825-01],80.6%,95.6%,53.5%,34.1%,70.7%,74.5%,77.27%,66.08%,,,,,,,,,750 nM,40.50%,21.41%
COc1ccc(OC)c(NC(=O)c2ccc3c(c2)N([S+](=O)([O-])c2ccccc2)CC3)c1 [NCGC00430430-01],111%,108%,91.3%,102%,79.3%,99.8%,,,112%,109%,,,,,105.03%,97.67%,,,
